According to US20210276960A1, “INHIBITORS OF TISSUE TRANSGLUTAMINASE 2 (TG2) AND USES THEREOF” (Northwestern University, priority 2020, published 2021):

Columns and labels:
[1] = tested on: OVCAR5 cells attachment onto FN; test: Early attachment assay with IF staining; format: cell-based, human; details: 1 μM, 72 hours pre-treatment, 30 minutes after seeding
Procedure: (§1) OVCAR5 cells were seeded(1×10^5 cells/well) in 6-well plates (Denville Scientific) and treated for 72 hrs with 1 μM MT-4, TG53 or vehicle control (DMSO). After drug exposure, cells were detached using Cellstripper (cellgro, #25-056-CI, CORNING, Manassas, Va., USA), centrifuged, and counted. Before seeding for either confocal microscopy or western blotting, they were incubated in serum free media in the presence of drugs for 15-90 minutes, as stated in the figure legends.
In order to analyze cell adhesion complex proteins expression and localization upon early attachment, cells were treated as stated above and then seeded onto FN-coated cover slips for 30 minutes at 37° C. Samples were fixed in 4% p-formaldehyde (PFA) and permeabilized with 0.2% Triton-X-100. After blocking, focal contacts were identified by using anti-vinculin antibodies, activation of integrins signaling pathway was assessed by antibodies against phosphorylated focal adhesion kinase (FAK), while actin cytoskeleton was labeled by Alexa Fluor 488-conjugated phalloidin (Life Technologies, #A12379). Nuclei were stained with 1:10000 Hoechst (Thermo Scientific) and specimens were mounted in Prolong Gold anti-fadereagent (Life Technologies). Cells were analyzed by laser scanning using a Nikon A1RGaAsPConfocal Laser Microscope. For co-localization analyses, SKOV3 cells were treated with DMSO (control) or TG53 (1 μM) and plated on FN-coated chamber slides (BD Biosciences) for 72 hrs. IF analysis was performed as previously described (Condello et al., 2013b). Briefly, after fixation, permeabilization and blocking, cells were incubated overnight with p-FAK (Y576/577), c-Src, p-Src (Y416), integrin β1 or TG2 primary antibodies in blocking buffer at 4° C., followed by 1 h incubation with Cy5-conjugated anti-mouse secondary antibody (1:500; Zymed Laboratories; South San Francisco, Calif., USA) or Alexa Fluor 488 anti-rabbit secondary antibody (1:1000; Molecular Probes, Eugene, Oreg., USA) at RT. Isotype-specific IgG was used as a negative control. Nuclei were visualized by 4′,6-diamidino-2-phenylindole (DAPI) staining (Vectashield; Vector Laboratories, Burlingame, Calif., USA). Analysis was done using an LSM 510 META confocal multiphoton microscope system (Carl Zeiss Inc., Thomwood, N.Y., USA) under UV excitation at 630 nm (for Cy5), 488 nm (for Alexa Fluor 488), and 340 nm (for DAPI) and using a 60× magnification objective. Colocalization percentage was calculated by normalizing the pixels corresponding to Cy5 or Alexa Fluor 488 emissions to DAPI pixels in the same cell, followed by merging area of green with area of red and determination of average of overlap areas. A Student' t test was calculated to determine statistical significance of differences between drug treated and DMSO control treated cells.

[2] = tested on: integrin β1 on SKOV3 cells; test: Flow cytometry of surface integrin β1, SKOV3; format: cell-based; details: serial concentrations
Procedure: FIG. 32. Flow cytometry analysis of integrin 31 plasma membrane expression. […] OC cells were pre-incubated 1 h with serial dilutions of MT4 (as compared to TG53- and DMSO-treated cells), and left to attach for on either plastic (P) or fibronectin (FN) coated 6-well plates. Anti-integrin 31 antibodies (0.5 μg/mL) were used as control.

[3] = tested on: FAK and ERK phosphorylation in OVCAR5 cells; test: Western blotting, time course after attachment to FN; format: cell-based, human; details: 5 μM
Procedure: FIG. 5. Effects of SMIs targeting the TG2/FN complex on “outside-in” signaling and adhesion to mesothelial surfaces. A, Western blot analysis of total and phosphorylated FAK and ERK was performed using cell lysates extracted from OVCAR cells plated on FN for 15 to 45 minutes in the presence of TG53 (left) or MT-4 (right) at 5 μM concentration, as compared to DMSO. GAPDH was used as a control. OVCAR5 cells had been pretreated with the inhibitors for 72 hours. Densitometry analysis used the Quantity One software and results were normalized to GAPDH loading controls. DMSO 0 min time point was considered as 1 for comparative analysis. Values are shown for each band. B, A modified cell adhesion assay measured the effects of TG53, MT-4, MT-5, and MT-6 (25 μM) on SKOV3 cells' adhesion onto semi-confluent LP9 monolayers. C, Dose-dependent effects of TG53, MT-4, MT-5, and MT-6 on OVCAR433 cells adhesion onto semi-confluent LP9 monolayers. D-E, Wound healing assay measures migration of SKOV3 and OVCAR5 cells in the presence of MT-4, MT-5, MT-6 at a concentration of 8 μM (black bars) or vehicle (open bar). Migration rate was determined over a period of 24 hours by measuring the average distance between the wound borders at the beginning and at the end of the assay interval (n=4). F-G, SKOV3-GFP OC cells were injected ip in NSG mice in the presence of either MT-4 ([…]) (F) or MT-6 ([…]) (G) and allowed to attach to the peritoneal wall. After 2 hours, the cell suspension was recovered from the peritoneal cavity through peritoneal washings and the non-attached OC cells recovered were counted. *p<0.05, **p<0.01, ***p<0.001, ****p<0.0001.
as §1
Cells pre-treated as stated above were seeded in 60 mm dishes coated with 5 μg/mL FN and serially harvested at 15, 30, and 45 minutes, − or left unattached (0 min), in cold RIPA buffer. Lysates were separated by SDS-PAGE, transferred onto PVDF membranes (Bio-Rad), incubated with primary and secondary antibodies and developed by using SuperSignal™ West Femto Maximum Sensitivity Substrate and Pierce™ ECL Western Blotting Substrate, respectively (Thermo Scientific). […] Densitometry analysis was performed using Quantity One software (Bio-Rad) and results were normalized to GAPDH loading controls. […]

Solubility assay = format: physicochemical; details: pH=7.4 PBS buffer, 2% DMSO
Procedure: Solubility was measured in a 384-well plate using a Synergy HTX plate reader. Starting with a 50 mM DMSO stock solution of test compounds, dilutions were made from 1 to 500 μM final concentrations using acetonitrile, keeping the final DMSO concentration at 2%. UV absorption was measured at 254 nm and absorbance versus concentration was plotted to give a standard curve. A DMSO stock of test compound was also diluted with pH=7.4 PBS buffer to give a final concentration of 250 μM containing 2% DMSO. This mixture was stirred on a plate shaker for 1 hr after which it was centrifuged at 2500 rpm for 3 min. 50 μL of the supernatant was removed, transferred to a 384-well plate, and the UV absorbance at 254 nm was measured. Absorbance of the test compound in PBS buffer was analyzed with the standard curve to determine solubility.

OC cells = details: 10 μM; not shown, see ref 11; cited from earlier work

SMILES	FAK phosphorylation (IF) [1]	number of focal contacts with FN-coated substrate (vinculin) [1]	β1 integrin receptors at the plasma membrane [2]	FAK phosphorylation, time course ([3]; 15 to 45 minutes on FN)	time of peak FAK activation post cell seeding on FN ([3]; control 15 minutes)	solubility at 1 h (Solubility assay)	wound closure, cell migration rate, and invasion through matrigel coated trans-well plates (OC cells)	ERK phosphorylation, time course ([3]; 15 to 45 minutes on FN)	solubility at 1 h (Solubility assay; aqueous buffer, kinetic from dmso stock)
COc1ccc(Cl)cc1C(=O)Nc1ccc(Nc2nc(C)cc(N(C)C)n2)cc1 [TG53]	decreased	decreased	did not show significant downregulation	modestly delayed	30 min	<5 µM	decreased	–	–
Cc1cc(N(C)C)nc(Nc2ccc(NC(=O)Cc3ccccc3)cc2)n1 [MT-4]	decreased	decreased	did not show significant downregulation	more evident	–	–	–	inhibited and delayed	91.5 µM
